The test system of data set [1] is eggs from the tobacco budworm (Heliotis virescens). The data set is described as follows: Heliothis virescens test (spray treatment). It counts as in vivo. As to conditions: application rate 500 g/ha, spray on soybean leaves, after 7 days. The procedure: • 78.0 parts by weight of acetone • 1.5 parts by weight of dimethylformamide Emulsifier: 0.5 part by weight of alkylaryl polyglycol ether
To produce a suitable preparation of active compound, 1 part by weight of active compound is mixed with the stated amounts of solvents and emulsifier, and the concentrate is diluted with emulsifier-containing water to the desired concentration. Soybean leaves (Glycine max.) are sprayed with an active compound preparation of the desired concentration and populated with eggs from the tobacco budworm (Heliotis virescens). After 7 days, the effect in % is determined. 100% means that all eggs have been killed, 0% means that no eggs have been killed.

A word on the melting point: it is the temperature, or range, at which the solid turns liquid.

For `COc1cnn(C)c(=O)c1-c1ccc(Cl)c(Cl)c1` [I-1-h-1, 4-(3,4-dichlorophenyl)-5-methoxy-2-methyl-3(2H)-pyridazinone], the melting point amounted to 176 °C.

Regarding `CC(C)(C)n1ncc(O)c(-c2ccc(Cl)cc2Cl)c1=O` [I-1-a-5], the “effect in % (eggs killed)” value in data set [1] is “at least 80%”.
